# Counter-ions that a name gives are not always drawn.
# Target: TrkA (Homo sapiens (Human), UniProt P04629)
# Assay: TrkA Omnia Assay
# Format: biochemical
# Conditions: averaged IC50; 20 nM enzyme, 500 μM ATP, 10 μM peptide substrate
# Procedure, shortened: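 Continuous fluorescent kinase read-out (ex 360 nm, em 485 nm) over 70 min, with initial rates fitted to 4- or 5-parameter logistic curves for IC50. Final conditions: 500 μM ATP, 10 μM Omnia Tyr Peptide #4, 20 nM TrkA, MOPS pH 7.5 buffer with MgCl2 and Triton X-100; enzyme and compound preincubated 10 min at ambient temperature.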
# TrkA, sequence (P04629 33-796): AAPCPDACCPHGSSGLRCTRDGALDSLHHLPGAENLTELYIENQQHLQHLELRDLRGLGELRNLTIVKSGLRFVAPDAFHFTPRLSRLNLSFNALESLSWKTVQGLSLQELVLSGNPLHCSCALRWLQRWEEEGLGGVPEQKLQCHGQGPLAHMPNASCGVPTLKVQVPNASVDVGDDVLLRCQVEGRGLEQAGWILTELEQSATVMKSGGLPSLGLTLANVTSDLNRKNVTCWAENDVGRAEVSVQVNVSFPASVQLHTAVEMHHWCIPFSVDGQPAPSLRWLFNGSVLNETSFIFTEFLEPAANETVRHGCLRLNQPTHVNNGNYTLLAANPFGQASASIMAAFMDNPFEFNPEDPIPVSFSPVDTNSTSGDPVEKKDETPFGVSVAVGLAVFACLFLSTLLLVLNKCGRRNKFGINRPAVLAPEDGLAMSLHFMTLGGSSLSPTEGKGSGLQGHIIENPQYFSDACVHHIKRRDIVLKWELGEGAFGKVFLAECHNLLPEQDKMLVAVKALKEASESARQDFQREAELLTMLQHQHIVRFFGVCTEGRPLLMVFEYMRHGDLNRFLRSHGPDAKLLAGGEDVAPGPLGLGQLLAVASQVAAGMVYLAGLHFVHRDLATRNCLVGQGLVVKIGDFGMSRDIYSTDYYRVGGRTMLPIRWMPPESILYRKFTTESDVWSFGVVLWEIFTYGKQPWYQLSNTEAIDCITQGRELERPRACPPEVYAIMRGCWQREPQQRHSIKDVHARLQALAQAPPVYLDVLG
row,IC50 [nM],Structure (SMILES)
1,< 100,"COCCN1C[C@@H](NC(=O)Nc2c(Br)c(COC3CCN(C(=O)OC(C)(C)C)CC3)nn2-c2ccccc2)[C@H](c2ccc(F)c(F)c2)C1 [Example 579, tert-butyl 4-((4-bromo-5-(3-((3S,4R)-4-(3,4-difluorophenyl)-1-(2-methoxyethyl)pyrrolidin-3-yl)ureido)-1-phenyl-1H-pyrazol-3-yl)methoxy)piperidine-1-carboxylate]"
2,100 to 1000,"COCCN1C[C@@H](NC(=O)Nc2cc(C3CCNCC3)nn2-c2ccccc2)[C@H](c2ccc(F)c(F)c2)C1 [Example 580, 1-((3S,4R)-4-(3,4-difluorophenyvl)-1-(2-methoxyethyl)pyrrolidin-3-yl)-3-(1-phenyl-3-(piperidin-4-yl)-1H-pyrazol-5-yl)urea dihydrochloride]"
3,< 100,"COCCN1C[C@@H](NC(=O)Nc2c(Cl)c(C3CCNCC3)nn2-c2ccccc2)[C@H](c2ccc(F)c(F)c2)C1 [Example 581, 1-(4-chloro-1-phenyl-3-(piperidin-4-yl)-1H-pyrazol-5-yl)-3-((3S,4R)-4-(3,4-difluorophenyl)-1-(2-methoxyethyl)pyrrolidin-3-yl)urea dihydrochloride]"
4,< 100,"COCCN1C[C@@H](NC(=O)Nc2c(Br)c(C3CCNCC3)nn2-c2ccccc2)[C@H](c2ccc(F)c(F)c2)C1 [Example 582, 1-(4-bromo-1-phenyl-3-(piperidin-4-yl)-1H-pyrazol-5-yl)-3-((3S,4R)-4-(3,4-difluorophenyl)-1-(2-methoxyethyl)pyrrolidin-3-yl)urea dihydrochloride]"
5,< 100,"COCCN1C[C@@H](NC(=O)Nc2c(C)c([C@H]3CCCN3)nn2-c2ccccc2)[C@H](c2ccc(F)c(F)c2)C1 [Example 583, 1-((3S,4R)-4-(3,4-difluorophenyl)-1-(2-methoxyethyl)pyrrolidin-3-yl)-3-(4-methyl-1-phenyl-3-((R)-pyrrolidin-2-yl)-1H-pyrazol-5-yl)urea dihydrochloride]"
6,< 100,"COCCN1C[C@@H](NC(=O)Nc2c(C)c([C@@H]3CCCN3)nn2-c2ccccc2)[C@H](c2ccc(F)c(F)c2)C1 [Example 584, 1-((3S,4R)-4-(3,4-difluorophenyl)-1-(2-methoxyethyl)pyrrolidin-3-yl)-3-(4-methyl-1-phenyl-3-((S)-pyrrolidin-2-yl)-1H-pyrazol-5-yl)urea dihydrochloride]"
7,< 100,"COCCN1C[C@@H](NC(=O)Nc2c(Cl)c([C@H]3CCCN3)nn2-c2ccccc2)[C@H](c2ccc(F)c(F)c2)C1 [Example 585, 1-((3S,4R)-4-(3,4-difluorophenyl)-1-(2-methoxyethyl)pyrrolidin-3-yl)-3-(4-chloro-1-phenyl-3-((R)-pyrrolidin-2-yl)-1H-pyrazol-5-yl)urea dihydrochloride]"
8,< 100,"COCCN1C[C@@H](NC(=O)Nc2c(C)c([C@@H]3CCCN3)nn2-c2ccccc2)[C@H](c2cc(F)cc(F)c2)C1 [Example 586, 1-((3S,4R)-4-(3,5-difluorophenyl)-1-(2-methoxyethyl)pyrrolidin-3-yl)-3-(4-methyl-1-phenyl-3-((S)-pyrrolidin-2-yl)-1H-pyrazol-5-yl)urea dihydrochloride]"
9,< 100,"COCCN1C[C@@H](NC(=O)Nc2c(Cl)c([C@@H]3CCCN3)nn2-c2ccccc2)[C@H](c2ccc(F)c(F)c2)C1 [Example 587, 1-((3S,4R)-4-(3,4-difluorophenyl)-1-(2-methoxyethyl)pyrrolidin-3-yl)-3-(4-chloro-1-phenyl-3-((S)-pyrrolidin-2-yl)-1H-pyrazol-5-yl)urea dihydrochloride]"
10,< 100,"COCCN1C[C@@H](NC(=O)Nc2c(Br)c([C@H]3CCCN3)nn2-c2ccccc2)[C@H](c2ccc(F)c(F)c2)C1 [Example 588, 1-(4-bromo-1-phenyl-3-((R)-pyrrolidin-2-yl)-1H-pyrazol-5-yl)-3-((3S,4R)-4-(3,4-difluorophenyl)-1-(2-methoxyethyl)pyrrolidin-3-yl)urea dihydrochloride]"
11,100 to 1000,"COCCN1C[C@@H](NC(=O)Nc2cc(COC3CCNCC3)nn2-c2ccccc2)[C@H](c2ccc(F)c(F)c2)C1 [Example 589, 1-((3S,4R)-4-(3,4-difluorophenyl)-1-(2-methoxyethyl)pyrrolidin-3-yl)-3-(1-phenyl-3-((piperidin-4-yloxy)methyl)-1H-pyrazol-5-yl)urea dihydrochloride]"
12,< 100,"COCCN1C[C@@H](NC(=O)Nc2c(Cl)c(COC3CCNCC3)nn2-c2ccccc2)[C@H](c2ccc(F)c(F)c2)C1 [Example 590, 1-(4-chloro-1-phenyl-3-((piperidin-4-yloxy)methyl)-1H-pyrazol-5-yl)-3-((3S,4R)-4-(3,4-difluorophenyl)-1-(2-methoxyethyl)pyrrolidin-3-yl)urea dihydrochloride]"
13,< 100,"COCCN1C[C@@H](NC(=O)Nc2c(Br)c(COC3CCNCC3)nn2-c2ccccc2)[C@H](c2ccc(F)c(F)c2)C1 [Example 591, 1-(4-bromo-1-phenyl-3-((piperidin-4-yloxy)methyl)-1H-pyrazol-5-yl)-3-((3S,4R)-4-(3,4-difluorophenyl)-1-(2-methoxyethyl)pyrrolidin-3-yl)urea dihydrochloride]"
14,< 100,"COCCN1C[C@@H](NC(=O)Nc2c(Br)c(C3CCN(S(C)(=O)=O)CC3)nn2-c2ccccc2)[C@H](c2ccc(F)c(F)c2)C1 [Example 592, 1-(4-bromo-3-(1-(methylsulfonyl)piperidin-4-yl)-1-phenyl-1H-pyrazol-5-yl)-3-((3S,4R)-4-(3,4-difluorophenyl)-1-(2-methoxyethyl)pyrrolidin-3-yl)urea]"
15,< 100,"COCCN1C[C@@H](NC(=O)Nc2c(Br)c(C3CCN(C(C)=O)CC3)nn2-c2ccccc2)[C@H](c2ccc(F)c(F)c2)C1 [Example 593, 1-(3-(1-acetylpiperidin-4-yl)-4-bromo-1-phenyl-1H-pyrazol-5-yl)-3-((3S,4R)-4-(3,4-difluorophenyl)-1-(2-methoxyethyl)pyrrolidin-3-yl)urea]"
16,< 100,"COCCN1C[C@@H](NC(=O)Nc2c(Cl)c(C3CCN(S(=O)(=O)C(F)(F)F)CC3)nn2-c2ccccc2)[C@H](c2ccc(F)c(F)c2)C1 [Example 594, 1-(4-chloro-1-phenyl-3-(1-(trifluoromethylsulfonyl)piperidin-4-yl)-1H-pyrazol-5-yl)-3-((3S,4R)-4-(3,4-difluorophenyl)-1-(2-methoxyethyl)pyrrolidin-3-yl)urea hydrochloride]"
17,< 100,"COCCN1C[C@@H](NC(=O)Nc2c(C)c([C@H]3CCCN3S(C)(=O)=O)nn2-c2ccccc2)[C@H](c2ccc(F)c(F)c2)C1 [Example 595, 1-((3S,4R)-4-(3,4-difluorophenyl)-1-(2-methoxyethyl)pyrrolidin-3-yl)-3-(4-methyl-3-((R)-1-(methylsulfonyl)pyrrolidin-2-yl)-1-phenyl-1H-pyrazol-5-yl)urea]"
18,< 100,"COCCN1C[C@@H](NC(=O)Nc2c(C)c([C@H]3CCCN3C(C)=O)nn2-c2ccccc2)[C@H](c2ccc(F)c(F)c2)C1 [Example 596, 1-(3-((R)-1-acetylpyrrolidin-2-yl)-4-methyl-1-phenyl-1H-pyrazol-5-yl)-3-((3S,4R)-4-(3,4-difluorophenyl)-1-(2-methoxyethyl)pyrrolidin-3-yl)urea]"
19,< 100,"COCCN1C[C@@H](NC(=O)Nc2c(C)c([C@H]3CCCN3C)nn2-c2ccccc2)[C@H](c2ccc(F)c(F)c2)C1 [Example 597, 1-((3S,4R)-4-(3,4-difluorophenyl)-1-(2-methoxyethyl)pyrrolidin-3-yl)-3-(4-methyl-3-((R)-1-methylpyrrolidin-2-yl)-1-phenyl-1H-pyrazol-5-yl)urea dihydrochloride]"
20,< 100,"COCCN1C[C@@H](NC(=O)Nc2c(C)c([C@@H]3CCCN3C)nn2-c2ccccc2)[C@H](c2cc(F)cc(F)c2)C1 [Example 598, 1-((3S,4R)-4-(3,5-difluorophenyl)-1-(2-methoxyethyl)pyrrolidin-3-yl)-3-(4-methyl-3-((S)-1-methylpyrrolidin-2-yl)-1-phenyl-1H-pyrazol-5-yl)urea dihydrochloride]"
21,< 100,"COCCN1C[C@@H](NC(=O)Nc2c(Br)c(COC3CCN(S(C)(=O)=O)CC3)nn2-c2ccccc2)[C@H](c2ccc(F)c(F)c2)C1 [Example 599, 1-(4-bromo-3-((1-(methylsulfonyl)piperidin-4-yloxy)methyl)-1-phenyl-1H-pyrazol-5-yl)-3-((3S,4R)-4-(3,4-difluorophenyl)-1-(2-methoxyethyl)pyrrolidin-3-yl)urea]"
22,< 100,"COCCN1C[C@@H](NC(=O)Nc2c(Br)c(COC3CCN(C(C)=O)CC3)nn2-c2ccccc2)[C@H](c2ccc(F)c(F)c2)C1 [Example 600, 1-(3-((1-acetylpiperidin-4-yloxy)methyl)-4-bromo-1-phenyl-1H-pyrazol-5-yl)-3-((3S,4R)-4-(3,4-difluorophenyl)-1-(2-methoxyethyl)pyrrolidin-3-yl)urea]"
23,< 100,"COCCN1C[C@@H](NC(=O)Nc2c(C)c(-c3nn(C(C)C)c(=O)o3)nn2-c2ccccc2)[C@H](c2ccc(F)c(F)c2)C1 [Example 601, 1-((3S,4R)-4-(3,4-difluorophenyvl)-1-(2-methoxyethyl)pyrrolidin-3-yl)-3-(3-(4-isopropyl-5-oxo-4,5-dihydro-1,3,4-oxadiazol-2-yl)-4-methyl-1-phenyl-1H-pyrazol-5-yl)urea]"
24,< 100,"COCCN1C[C@@H](NC(=O)Nc2c(C)c(-c3nn(C)c(=O)o3)nn2-c2ccccc2)[C@H](c2ccc(F)c(F)c2)C1 [Example 602, 1-((3S,4R)-4-(3,4-difluorophenyl)-1-(2-methoxyethyl)pyrrolidin-3-yl)-3-(4-methyl-3-(4-methyl-5-oxo-4,5-dihydro-1,3,4-oxadiazol-2-yl)-1-phenyl-1H-pyrazol-5-yl)urea]"
25,< 100,"COCCN1C[C@@H](NC(=O)Nc2c(C)c(Oc3cnccn3)nn2-c2ccccc2)[C@H](c2ccc(F)cc2)C1 [Example 603, 1-((3S,4R)-4-(4-fluorophenyl)-1-(2-methoxyethyl)pyrrolidin-3-yl)-3-(4-methyl-1-phenyl-3-(pyrazin-2-yloxy)-1H-pyrazol-5-yl)urea]"
